# From patent US9828605B2, “Composition for enhancing radiation sensitivity comprising PI4K isozyme inhibitor” (Seoul National University R&DB Foundation, priority 2015, dated 2017)
# Tests used:
# [1] = tested on: U251 cell line; assay: colony formation assay after antiviral drug treatment and irradiation, U251; format: cell-based; details: drug concentrations determined as 100 nM, 200 nM and 30 μM, FIGS. 5 to 7
# Method: (§1) First, after 48 hours of siRNA transduction of Example 2, the cells were collected and 500 with 0 Gy, 1,000 with 2 Gy, 2,000 with 4 Gy, and 4,000 with 6 Gy cells were cultured on a plate according to a radiation dose. After it was checked that the cells were stably attached to a culture dish, radiation was treated with a radiation dose rate of 2.46 Gy per minute by 4 MV X-ray by using a linear accelerator, and the cells were cultured for about 14 days to 23 days until cell colonies were checked with the naked eye. The formed colonies were fixed with 100% methanol and then dyed with 0.5% crystal violet, and surviving fraction was calculated by counting the number of colonies including at least 50 cells. In the surviving fraction, an average of the number of cell colonies in three wells for each radiation dose was shown according to a linear-quadratic model using Kaleidagraph version 3.51 (Synergy Software, Reading, Pa.), and the result was illustrated in FIG. 2.
# (§2) As the hepatitis anti-C virus drug, simeprevir (Olysio) (Janssen Pharmaceutica), sofosbuvir (sovaldi) (Gilead), and daclatasvir (Daklinza) (Bristol-Myers Squibb) were used. […]
# (§3) After the determined amount of drug was treated in the brain tumor and breast cancer cell lines, the colony formation assay was performed by the same method as Experimental Example 1, and the result was illustrated in FIGS. 5 to 7.
# [2] = tested on: BT-474 cell line; assay: colony formation assay after antiviral drug treatment and irradiation, BT-474; format: cell-based, human; details: drug concentrations determined as 100 nM, 200 nM and 30 μM, FIGS. 5 and 6
# Method: as §1, §2, §3
# [3] = tested on: human breast cancer cell lines BT-474; assay: tumor xenograft model in vivo with radiation irradiation; parameters: species or system BALB/c athymic nude mouse; details: simeprevir 10 mg/Kg to peritoneal cavity three times a week for two weeks + radiation 9 Gy (3 Gy three times a week); compared with other groups; FIG. 9
# Method: In order to form a tumor xenograft model in vivo, 5×10^6 human breast cancer cell lines BT-474 were injected to a hind leg of a BALB/c athymic nude mouse. After 3 weeks, it was verified that the tumor was uniformly grown, and the mouse was randomly assigned to four groups of a control group, a simeprevir group, a radiation irradiation group, and a simeprevir+radiation irradiation group. The simeprevir was administrated to peritoneal cavity with a concentration of 10 mg/Kg three times a week for two weeks, and the radiation was irradiated with 9 Gy three times a week by 3 Gy by electron beam of 6 MeV while covering 1 cm bolus. After the entire treatment was finished, the size of the tumor was measured at an interval of about 1 week, and the result was illustrated in FIG. 9.
# [4] = tested on: phosphorylation of PKC and AKT; assay: immune blotting of phosphorylation after simeprevir treatment, U251; format: cell-based; details: 24-72 hours of drug treatment, FIG. 5 right panel
# Method: Simeprevir used as a hepatitis anti-C virus drug was treated and phosphorylation was verified through immune blotting after 24-72 hours of drug treatment. The result was illustrated in FIG. 5 (right panel).
Structure (SMILES),sensitivity to radiation (colony formation assay) [1],sensitivity to radiation (colony formation assay) [2],growth of the tumor [3],phosphorylation of AKT [4],phosphorylation of PKC [4]
CC(C)OC(=O)[C@H](C)N[P@](=O)(OC[C@H]1O[C@@H](n2ccc(=O)[nH]c2=O)[C@](C)(F)[C@@H]1O)Oc1ccccc1 [sofosbuvir],enhanced,enhanced,–,–,–
COc1ccc2c(O[C@@H]3C[C@H]4C(=O)N[C@]5(C(=O)NS(=O)(=O)C6CC6)C[C@H]5/C=C\CCCCN(C)C(=O)[C@@H]4C3)cc(-c3nc(C(C)C)cs3)nc2c1C [simeprevir],enhanced,enhanced,significantly inhibited,reduction,reduction
